Source: patent publication US12391686B2, “Compounds and uses thereof” (Foghorn Therapeutics Inc., priority 2019, dated 2025)
Where two headings read alike, the source gives them in different places.

How the values were obtained:
[1] = target: T1, BRD9 bromodomain (Flag-BRD9 P133-K239; Swiss Prot Q9H8M2) (Homo sapiens, UniProt Q9H8M2); assay: BRD9 Bromodomain TR-FRET Competition Binding Assay; conditions: competition with biotinylated BRD9 ligand; 90 minutes at room temperature
T1 construct: His-Flag-BRD9 (P133-K239); Swiss Prot Q9H8M2; His6 with TEV site (mgsshhhhhhenlyfq/) (N, cleaved yes); made in house
T1 sequence (Q9H8M2 133-239): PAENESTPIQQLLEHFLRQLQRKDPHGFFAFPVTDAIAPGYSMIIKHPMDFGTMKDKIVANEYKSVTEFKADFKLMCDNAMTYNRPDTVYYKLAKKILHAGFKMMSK
Procedure: Procedure: His-Flag-BRD9 (P133-K239; Swiss Prot Q9H8M2; SEQ ID NO:1 mgsshhhhhhenlyfq/gdykddddkgslevlfqg/[…] […]) was cloned, expressed, purified, and then treated with TEV protease. Cleaved His tag was removed by purification. The binding of a biotinylated small molecule ligand of BRD9 was assessed via the LANCE® TR-FRET platform (PerkinElmer), and the compounds were assayed for inhibitory activity against this interaction.
Results: A mixture of biotinylated-ligand and SureLight™ Allophycocyanin-Streptavidin (APC-SA, PerkinElmer AD0201) in 50 mM HEPES (pH 7.4), 50 mM NaCl, 1 mM TCEP (pH 7), 0.01% (v/v) Tween-20, 0.01% (w/v) bovine serum albumin was added to a white 384-well PerkinElmer Proxiplate Plus plate. DMSO or 3-fold serially diluted compounds were then added to the Proxiplate followed by addition of Flag-BRD9. After a 10-minute incubation at room temperature, Eu-W1024 anti-FLAG (PerkinElmer, AD0273) was added. The final reaction mixture that contained 3.75 nM biotinylated ligand, 3 nM Flag-BRD9, 7.5 nM SureLight™ Allophycocyanin-Streptavidin, and 0.2 nM Eu-W1024 anti-FLAG was incubated at room temperature for 90 minutes.
The plates were then read on a PerkinElmer Envision plate reader to determine the ratio of emission at 665 nm over 615 nm. […]

[2] = target: T2, Nanoluciferase-BRD9 fusion protein (3×FLAG-NLuc-BRD9) in SYO-1 cells (Homo sapiens, UniProt Q9H8M2); assay: SYO1 BRD9 NanoLuc Degradation Assay; type: cell-based; conditions: read-out: SYO1 BRD9-NanoLuc degradation IC50
T2 construct: expressed in transfected cells; host or cells: SYO-1
T2 sequence (Q9H8M2 1-597): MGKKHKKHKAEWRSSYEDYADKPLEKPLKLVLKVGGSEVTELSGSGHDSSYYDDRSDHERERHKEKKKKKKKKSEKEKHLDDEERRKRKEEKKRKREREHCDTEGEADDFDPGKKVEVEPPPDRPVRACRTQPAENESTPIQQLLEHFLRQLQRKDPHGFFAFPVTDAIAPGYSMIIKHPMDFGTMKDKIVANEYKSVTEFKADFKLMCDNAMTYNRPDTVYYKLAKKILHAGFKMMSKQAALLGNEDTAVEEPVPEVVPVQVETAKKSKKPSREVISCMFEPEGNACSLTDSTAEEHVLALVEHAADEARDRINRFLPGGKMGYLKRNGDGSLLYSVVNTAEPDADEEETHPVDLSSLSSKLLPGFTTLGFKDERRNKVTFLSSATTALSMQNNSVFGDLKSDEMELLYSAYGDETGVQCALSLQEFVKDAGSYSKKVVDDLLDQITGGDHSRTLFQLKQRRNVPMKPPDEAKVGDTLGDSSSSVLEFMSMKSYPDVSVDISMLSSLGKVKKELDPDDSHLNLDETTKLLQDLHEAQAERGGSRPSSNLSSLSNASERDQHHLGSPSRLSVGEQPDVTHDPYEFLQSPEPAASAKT
Outline: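 NanoLuc signal, read by Nano-Glo luminescence after 6 h compound exposure, gives % inhibition against DMSO-treated cells (high control) and cells given 1 μM of a standard BRD9 degrader (low control). Test compounds ran as 10-point 3-fold series, top 1 μM final, in duplicate on SYO-1 cells stably expressing 3×FLAG-NLuc-BRD9.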

[3] = 6 hours, SYO-1 cells expressing 3×FLAG-NLuc-BRD9, top dose 1 μM
[4] = Table 6C, SYO-1 cells expressing 3×FLAG-NLuc-BRD9, 6 hours incubation, 1 μM top dose

Row | SMILES | IC50 [1] | DC50 [2, 3] | DC50 [2, 4]
1 | CNc1cc2c(-c3cc(OC)c(CN(C)C)c(OC)c3)cn(C)c(=O)c2cn1 [Compound B1, 4-[4-[(dimethylamino)methyl]-3,5-dimethoxyphenyl]-2-methyl-6-(methylamino)-1,2-dihydro-2,7-naphthyridin-1-one] | < 10 nM | – | –
2 | COc1cc(-c2cn(C)c(=O)c3cnc(N(C)C)cc23)cc(OC)c1CN(C)C [Compound B2, 6-(dimethylamino)-4-[4-[(dimethylamino)methyl]-3,5-dimethoxyphenyl]-2-methyl-1,2-dihydro-2,7-naphthyridin-1-one] | < 10 nM | – | –
3 | CNc1cc2c(=O)n(C)cc(-c3cc(OC)c(CN(C)C)c(OC)c3)c2cn1 [Compound B3, 4-[4-[(Dimethylamino)methyl]-3,5-dimethoxyphenyl]-2-methyl-7-(methylamino)-1,2-dihydro-2,6-naphthyridin-1-one] | ≥ 10 nM | – | –
4 | COc1cc(-c2cn(C)c(=O)c3cnc(N)cc23)cc(OC)c1CN(C)C [Compound B4, 6-amino-4-[4-[(dimethylamino)methyl]-3,5-dimethoxyphenyl]-2-methyl-1,2-dihydro-2,7-naphthyridin-1-one] | ≥ 10 nM | – | –
5 | COc1cc(-c2cn(C)c(=O)c3cc(N)ncc23)cc(OC)c1CN(C)C [Compound B5, 7-amino-4-(4-((dimethylamino)methyl)-3,5-dimethoxyphenyl)-2-methyl-2,6-naphthyridin-1(2H)-one] | ≥ 10 nM | – | –
6 | COc1cc(-c2cn(C)c(=O)c3cc(NCC(=O)N(C)C)ncc23)cc(OC)c1CN(C)C [Compound B6, 2-[(8-[4-[(dimethylamino)methyl]-3,5-dimethoxyphenyl]-6-methyl-5-oxo-2,6-naphthyridin-3-yl)amino]-N,N-dimethylacetamide formic acid] | ≥ 10 nM | – | –
7 | COc1cc(-c2cn(C)c(=O)c3cnc(N(C)C)cc23)cc(OC)c1CN1CC(C(=O)NCCCCCOc2cccc3c2C(=O)N(C2CCC(=O)NC2=O)C3=O)C1 (stereo not drawn) [Compound D1, 1-([4-[6-(dimethylamino)-2-methyl-1-oxo-1,2-dihydro-2,7-naphthyridin-4-yl]-2,6-dimethoxyphenyl]methyl)-N-(5-[[2-(2,6-dioxopiperidin-3-yl)-1,3-dioxo-2,3-dihydro-1H-isoindol-4-yl]oxy]pentyl)azetidine-3-carboxamide] | < 10 nM | < 10 nM | –
8 | COc1cc(-c2cn(C)c(=O)c3cnc(N(C)C)cc23)cc(OC)c1CN1CC[C@H]1CN(C)Cc1cccc2c1C(=O)N(C1CCC(=O)NC1=O)C2=O (stereo partly drawn) [Compound D2, 4-(((((S)-1-(4-(6-(dimethylamino)-2-methyl-1-oxo-1,2-dihydro-2,7-naphthyridin-4-yl)-2,6-dimethoxybenzyl)azetidin-2-yl)methyl)(methyl)amino)methyl)-2-(2,6-dioxopiperidin-3-yl)isoindoline-1,3-dione] | < 10 nM | ≥ 100 nM | –
9 | COc1cc(-c2cn(C)c(=O)c3cnc(N(C)C)cc23)cc(OC)c1CN1CC(N(C)Cc2cccc3c2C(=O)N(C2CCC(=O)NC2=O)C3=O)C1 (stereo not drawn) [Compound D3, 4-([[1-([4-[6-(dimethylamino)-2-methyl-1-oxo-2,7-naphthyridin-4-yl]-2,6-dimethoxyphenyl]methyl)azetidin-3-yl](methyl)amino]methyl)-2-(2,6-dioxopiperidin-3-yl)isoindole-1,3-dione formic acid] | < 10 nM | ≥ 10 nM | –
10 | COc1cc(-c2cn(C)c(=O)c3cnc(N(C)C)cc23)cc(OC)c1CN1CC[C@H]1C(=O)N(C)Cc1cccc2c1C(=O)N(C1CCC(=O)NC1=O)C2=O (stereo partly drawn) [Compound D4, (2S)-1-(4-(6-(dimethylamino)-2-methyl-1-oxo-1,2-dihydro-2,7-naphthyridin-4-yl)-2,6-dimethoxybenzyl)-N-((2-(2,6-dioxopiperidin-3-yl)-1,3-dioxoisoindolin-4-yl)methyl)-N-methylazetidine-2-carboxamide formic acid] | < 10 nM | ≥ 100 nM | –
11 | COc1cc(-c2cn(C)c(=O)c3cnc(NCCCCCCCCNC(=O)COc4cccc5c4C(=O)N(C4CCC(=O)NC4=O)C5=O)cc23)cc(OC)c1CN(C)C (stereo not drawn) [Compound D5, N-[8-[(5-[4-[(dimethylamino)methyl]-3,5-dimethoxyphenyl]-7-methyl-8-oxo-2,7-naphthyridin-3-yl)amino]octyl]-2-[[2-(2,6-dioxopiperidin-3-yl)-1,3-dioxoisoindol-4-yl]oxy]acetamide formic acid] | ≥ 10 nM | ≥ 100 nM | –
12 | COc1cc(-c2cn(C)c(=O)c3cnc(NCCCCCOc4cccc5c4C(=O)N(C4CCC(=O)NC4=O)C5=O)cc23)c(OC)cc1CN(C)C (stereo not drawn) [Compound D6, 4-((5-((5-(4-((dimethylamino)methyl)-2,5-dimethoxyphenyl)-7-methyl-8-oxo-7,8-dihydro-2,7-naphthyridin-3-yl)amino)pentyl)oxy)-2-(2,6-dioxopiperidin-3-yl)isoindoline-1,3-dione formic acid] | ≥ 10 nM | ≥ 10 nM | –
13 | CNc1cc2c(=O)n(C)cc(-c3cc(OC)c(CN4CC(C(=O)NCCCCCOc5cccc6c5C(=O)N(C5CCC(=O)NC5=O)C6=O)C4)c(OC)c3)c2cn1 (stereo not drawn) [Compound D7, 1-([2,6-dimethoxy-4-[2-methyl-7-(methylamino)-1-oxo-2,6-naphthyridin-4-yl]phenyl]methyl)-N-(5-[[2-(2,6-dioxopiperidin-3-yl)-1,3-dioxoisoindol-4-yl]oxy]pentyl)azetidine-3-carboxamide formic acid] | < 10 nM | < 10 nM | –
14 | [2H]C([2H])([2H])n1cc(-c2cc(OC)c(CN3CCC(CN4CCC5(CC4)CC(Oc4ccc6c(c4)C(=O)N(C4CCC(=O)NC4=O)C6=O)C5)CC3)c(OC)c2)c2cc(C3CC3)ncc2c1=O (stereo not drawn) [Compound D307] | – | – | < 10 nM

Other lines, results leading:

Row | IC50 [1] | DC50 [2, 3] | DC50 [2, 4] | SMILES
15 | – | – | < 10 nM | COc1cc(-c2cn(C)c(=O)c3cnc(C4COC4)cc23)cc(OC)c1CN1CCN(CCC2CCN(c3ccc4c(c3)C(=O)N(C3CCC(=O)NC3=O)C4=O)CC2)CC1 (stereo not drawn) [Compound D308]
16 | – | – | < 10 nM | COc1cc(-c2cn(C)c(=O)c3cnc(C(F)(F)F)cc23)cc(OC)c1CN1CCN(CCC2CCN(c3ccc4c(c3)CN(C3CCC(=O)NC3=O)C4=O)CC2)CC1 (stereo not drawn) [Compound D309]
17 | – | – | < 10 nM | COc1cc(-c2cn(C)c(=O)c3cnc(N4CCC4)cc23)cc(OC)c1CN1CCC2(CC1)CN(c1ccc3c(c1)CN(C1CCC(=O)NC1=O)C3=O)C2 (stereo not drawn) [Compound D310]
18 | – | – | < 10 nM | COc1cc(-c2cn(C)c(=O)c3cnc(N4CCC4)cc23)cc(OC)c1CN1CC(CN2CCC3(CC2)CN(c2ccc4c(c2)C(=O)N(C2CCC(=O)NC2=O)C4)C3)C1 (stereo not drawn) [Compound D311]
19 | – | – | < 10 nM | COc1cc(-c2cn(C)c(=O)c3cnc(N4CCC4)cc23)cc(OC)c1CN1CCC(c2ccc3c(c2)CN(C2CCC(=O)NC2=O)C3=O)CC1 (stereo not drawn) [Compound D312]
20 | – | – | < 10 nM | COc1cc(-c2cn(C)c(=O)c3cnc(N4CCC4)cc23)cc(OC)c1CN1CCC(c2ccc3c(c2)C(=O)N(C2CCC(=O)NC2=O)C3)CC1 (stereo not drawn) [Compound D313]
21 | – | – | < 10 nM | COc1cc(-c2cn(C)c(=O)c3cnc(N4CCOCC4)cc23)cc(OC)c1CN1CC(Oc2ccc3c(c2)CN(C2CCC(=O)NC2=O)C3=O)C1 (stereo not drawn) [Compound D314]
22 | – | – | < 10 nM | COc1cc(-c2cn(C)c(=O)c3cnc(C(C)(C)CO)cc23)cc(OC)c1CN1CCC(CN2CCC3(CC2)CC(Oc2ccc4c(c2)CN(C2CCC(=O)NC2=O)C4=O)C3)CC1 (stereo not drawn) [Compound D315]
23 | – | – | < 10 nM | COc1cc2c(-c3cc(OC)c(CN4CC(CN5CCC6(CC5)CN(c5ccc7c(c5)C(=O)N(C5CCC(=O)NC5=O)C7)C6)C4)c(OC)c3)cn(C)c(=O)c2cn1 (stereo not drawn) [Compound D316]
